Measured values as given in patent US11884651B1, “7-(4-((4-benzylidene-5-oxo-2-phenyl-4,5-dihydro-1H-imidazol-1-yl)methyl)piperazin-1-yl)-1-cyclopropyl-6-fluoro-4-oxo-1,4-dihydroquinoline-3-carboxylic acid as an anti-inflammatory compound” (KING FAISAL UNIVERSITY, priority 2023, dated 2024).

Legend:
[1] = molecular target: Bovine Serum Albumin (BSA) (Bos taurus, UniProt P02769); assay: Bovine Serum Albumin Assay (BSA), inhibition of heat-induced protein denaturation (in vitro anti-inflammatory activity); type: biochemical
Chain of Bovine Serum Albumin (BSA) (P02769 25-607): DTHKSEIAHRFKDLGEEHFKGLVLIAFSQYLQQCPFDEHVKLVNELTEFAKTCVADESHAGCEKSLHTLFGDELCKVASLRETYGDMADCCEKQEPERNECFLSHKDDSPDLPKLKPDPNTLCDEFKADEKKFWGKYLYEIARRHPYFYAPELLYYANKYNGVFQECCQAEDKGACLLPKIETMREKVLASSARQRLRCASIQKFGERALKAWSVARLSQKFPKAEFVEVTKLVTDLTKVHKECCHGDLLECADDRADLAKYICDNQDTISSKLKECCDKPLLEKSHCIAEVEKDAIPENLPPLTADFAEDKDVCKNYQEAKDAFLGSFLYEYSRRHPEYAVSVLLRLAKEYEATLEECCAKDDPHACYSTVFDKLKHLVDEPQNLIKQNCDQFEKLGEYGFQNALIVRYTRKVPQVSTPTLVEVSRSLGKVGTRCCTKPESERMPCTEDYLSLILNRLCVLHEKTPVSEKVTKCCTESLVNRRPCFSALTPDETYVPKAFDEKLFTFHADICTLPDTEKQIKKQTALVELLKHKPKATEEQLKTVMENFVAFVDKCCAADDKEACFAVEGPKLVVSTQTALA
Experimental: Bovine Serum Albumin Assay (BSA) In vitro-inflammatory activities of the tested samples were determined using a modified method of the BSA assay reported by Williams et al. BSA solution (0.4%, w/v) was prepared in Tris Buffered Saline. The pH was adjusted to 6.4 with glacial acetic acid. Different dilutions of 20, 40, 60, 80, and 100 pg/mL of the stock solutions of 7-(4((4-benzylidene-5-oxo-2-phenyl-4,5-dihydro-1H-imidazol-1-yl)methyl)piperazin-1-yl)-1-cyclopropyl-6-fluoro-4-oxo-1,4-dihydroquinoline-3-carboxylic acid (4) were added to test tubes containing 1 mL of 0.4%, w/v BSA buffer solution. Both negative (solvent) and positive (aspirin) controls were assayed in a similar manner. The solutions were then heated in a water bath at 72° C. for 10 minutes and cooled for 20 minutes under laboratory conditions. The turbidity of the solutions (level of protein precipitation) was measured at 660 nm in Spectrophotometer (V-770 UV-Visible/NIR Spectrophotometer). The percentage inhibition of precipitation (protein denaturation) was determined relative to the negative control using the following equation: [formula] [formula]

Row | percentage inhibition of precipitation (protein denaturation) ([1]; 100 pg/ml (concentration printed for aspirin), 0.4% w/v BSA, pH 6.4, 72° C. for 10 minutes, turbidity at 660 nm, relative to negative control) [%] | melting point [°C] | in vitro anti-inflammatory activity (result in words) ([1]; BSA assay) | percentage inhibition of precipitation (protein denaturation) ([1]; bovine, 10 min, 100 pg/mL, pH 6.4) [%] | Compound
1 | 90.75 |  |  |  | CC(=O)Oc1ccccc1C(=O)O [aspirin, reference compound]
2 |  | 232 to 234 | considerable anti-inflammatory effect | 84.78 | O=C(O)c1cn(C2CC2)c2cc(N3CCN(CN4C(=O)/C(=C\c5ccccc5)N=C4c4ccccc4)CC3)c(F)cc2c1=O [Compound 4, 7-(4-((4-benzylidene-5-oxo-2-phenyl-4,5-dihydro-1H-imidazol-1-yl)methyl)piperazin-1-yl)-1-cyclopropyl-6-fluoro-4-oxo-1,4-dihydroquinoline-3-carboxylic acid]
